The source of these data is PMC8954220, “Sparsomycin Exhibits Potent Antiplasmodial Activity In Vitro and In Vivo” (Pharmaceutics, 2022).

Like-named read-outs stand apart in the source and are kept apart here.

The subject of one series is P. falciparum K1. The series is described as follows: SYBR Green I-based fluorescence in vitro growth inhibition assay. The class given is cell-based, Plasmodium falciparum. The following applies: for IC50: Plasmodium falciparum, read-out: IC50 P. falciparum K1. The procedure: (§1) P. falciparum strains 3D7 and K1 were cultivated in 2% washed human O-positive erythrocytes (supplied by Japanese Red Cross Society, Hokkaido, Japan) using a multi-gas incubator (37 °C, 5% CO2 and 5% O2).
(§2) Briefly, test compounds were diluted in complete medium to eight desired concentrations (2-fold serial dilution). […] Next, 50 μL of synchronous parasites at 0.5% parasitemia and 2% hematocrit was seeded in a 96-well plate containing 50 μL of test compounds. The 96-well plate was incubated for 72 h at 37 °C, 5% CO2 and 5% O2. Next, 100 μL of lysis buffer containing 0.02% (v/v) SYBR Green I was added to each well and mixed and then the 96-well plate was incubated at room temperature for 2 h in the dark. […] Erythrocytes treated with 1% DMSO were used as a negative control and wells containing only test compounds and erythrocytes were used to correct background signals. In at least three independent trials, the inhibition assay was performed in quadruplicate for each concentration.

In series [1] the test system is P. falciparum 3D7. The description is as above. It is filed as cell-based, Plasmodium falciparum. Particulars: for IC50: Plasmodium falciparum, read-out: IC50 P. falciparum 3D7. The method, then:
as §1, §2

The test system of another series is retinas of animals. Also on record: method as in PMID 3310108. Particulars: animals treated with toxic doses; cited from earlier work.
Series [2] is described as follows: In vitro cytotoxicity, cell viability assay (CCK-8). The following applies: human, human foreskin fibroblasts (HFFs).
Experimental: A cell viability assay was used to evaluate the cytotoxic action of Sm as described previously [18]. Briefly, a 100 μL cell suspension was seeded in a 96-well plate at a concentration of 1 × 10^5 cells/mL in DMEM containing 10% FBS and incubated for 48 h at 37 °C and 5% CO2. Next, 2-fold dilutions (total of eight concentrations) of test compounds in DMEM were added in quadruplicate to each well and incubated for an additional 72 h.
Data were analyzed using GraphPad Prism 8 (GraphPad Software, Inc., La Jolla, CA, USA). IC50 or CC50 values were calculated from three independent experiments using a non-linear regression fit to logarithm concentration value of the compound versus inhibition percentage of parasite or cell growth, respectively.
The next series deals with P. yoelii 17XNL. Kind of series: Uncomplicated rodent malaria model, 7-day treatment (modified Peters' test). The class given is in vivo, C57BL/6 J mice. The procedure: (§3) Male C57BL/6 J mice (8 weeks old with body weight of 20–25 g; six mice per group) were purchased from Japan CLEA (Tokyo, Japan). The mice were allowed free access to water and food (CLEA Rodent Diet CE-2; Japan CLEA, Tokyo, Japan). The room temperature (24 °C), relative humidity (50%) and lighting (light from 8 a.m. to 8 p.m.) were adjusted and controlled. P. yoelii 17XNL and P. berghei ANKA were recovered from frozen packed erythrocyte stocks via passage in mice following intraperitoneal (i.p.) injection. Challenge experiments were performed with i.p. injections of 1 × 10^7 fresh infected erythrocytes from donor mice (designated as 0 days post-infection (dpi)). Approximately 2 h after the injection, 2 μL of blood was collected from the tip of the mice’s tail and the parasitemia levels were checked using Giemsa-stained thin blood smears. When the parasitemia level reached 1%, the infected mice were intraperitoneally treated with vehicle (1 × PBS) or Sm at a dose of 100 or 300 μg/kg (modified from reported IC50 in Ref. [22]) once daily for 7 days (0–6 dpi; modified Peters’ test) for P. yoelii 17XNL and 300 μg/kg once daily for 4 (0–3 dpi; Peters’ 4-day test) or 7 days (0–6 dpi, [23]) for P. berghei ANKA. The survival and clinical signs of mice were monitored daily after infection. Mice with high clinical signs (arched back, immobility, >20% body weight loss and pain sign) were euthanized immediately. Parasitemia in P. yoelii 17XNL-infected mice was observed daily using Giemsa-stained thin blood smears (up to 30 dpi).
A p-value of <0.05 was considered statistically significant and is shown as an asterisk or a symbol, defined in each table/figure legend together with the name of the test used.

In a further series the test system is mice. The following applies: i.p. administration; cited from earlier work.
In the next series the test system is P. berghei ANKA. Kind of series: Complicated rodent malaria model, survival (Peters' 4-day test or 7-day regimen). It is filed as in vivo, C57BL/6 J mice. The following applies: up to 25 dpi. The method, then:
as §3, with “Mice with high clinical signs (arched back, immobility, >20% body weight loss and pain sign) were euthanized immediately. Parasitemia in P. yoelii 17XNL-infected mice was observed daily using Giemsa-stained thin blood smears (up to 30 dpi).” left out

Series [3] has as its system patients (with advanced carcinoma). Also on record: method as in PMID 5928140. The following applies: daily doses; after 13 days (total dose 0.24 mg/kg) and 15 days (total dose 0.15 mg/kg); cited from earlier work.
The nature of series [4]: Erythrocyte hemolysis assay. It is filed as cell-based. The following applies: human, 3 h at 37 °C, mean ± SD, read-out: RBC Hemolysis Rate (%) at 100 μM.
Experimental: An erythrocyte hemolysis assay was performed as previously described [21]. Briefly, 100 μL of each compound (final concentration, 100 μM) in 1× phosphate-buffered saline (PBS) was seeded in a 96-well plate and 100 μL of a 3% erythrocyte suspension in PBS was added. The plate was incubated for 3 h at 37 °C, 5% CO2 and 5% O2 and then centrifuged at 1300× g for 5 min. Subsequently, 100 μL of the supernatant of each mixture was transferred to a new 96-well plate and the absorbance was recorded at 540 nm. […] The erythrocyte hemolysis rate was calculated using the following formula: hemolysis rate = ([Asample − Anegative control]/[Apositive control − Anegative control] × 100), where A is absorbance [21]. The experiments were performed in triplicate and repeated three times independently.
Series [5] deals with P. falciparum 3D7. The series is described as follows: Microscopic analysis of parasitemia and morphology (Giemsa-stained thin blood smears). It is filed as cell-based, Plasmodium falciparum. The procedure:
The parasites were tightly synchronized using a two-step sorbitol treatment protocol and used at the ring stage with 0.5% parasitemia and 2% hematocrit. Sm (50 and 10 nM) in complete medium and 1% DMSO in complete medium were used as the treated and untreated groups, respectively, in this assay. Subsequently, the Giemsa-stained thin blood smears of each treatment group were prepared after 1, 24, 48, or 72 h of incubation. After 72 h, incubation was continued after changing the medium in either the presence (unwashed group) or absence (washed group) of Sm for up to 144 h. Subsequently, the Giemsa-stained thin blood smears of each treatment group were prepared at 96, 120 and 144 h. The blood smears were observed using a BZ-900 all-in-one microscope (Keyence BioRevo, Tokyo, Japan). The parasitemia levels were determined by enumerating the number of infected erythrocytes in relation to uninfected erythrocytes (a minimum of 500 cells were counted). The assay was performed in triplicate for each concentration and time point.

The IC50 is the concentration needed to halve the response being measured. Consider `C[C@@H]1CC[C@H]2[C@@H](C)C(=O)O[C@@H]3O[C@@]4(C)CC[C@@H]1[C@]32OO4` [Artemisinin, artemisinin, reference compound], for which the IC50 came to 19.9 ± 1.51 nM in the series with P. falciparum K1 (K1, 72 h exposure, mean ± SD of three independent experiments) and 13.2 ± 2.66 nM with P. falciparum 3D7 [1] (3D7, 72 h exposure, mean ± SD of three independent experiments).

For the molecule `CCN(CC)CCCC(C)Nc1ccnc2cc(Cl)ccc12` (stereo not drawn) [Chloroquine, Chloroquine diphosphate, reference compound], the IC50 in the series on P. falciparum K1 (K1, 72 h) stood at 740 ± 95.7 nM; in the series on P. falciparum 3D7 [1] (3D7, 72 h), 26.2 ± 3.66 nM.

As usually defined, the CC50 is the concentration giving 50% cytotoxicity. In the case of `CSC[S@+]([O-])C[C@H](CO)NC(=O)/C=C/c1c(C)[nH]c(=O)[nH]c1=O` [Sparsomycin, sparsomycin], the “Pathological changes in the retinas” value in the series on retinas of animals is “no observable pathological changes”. In series [2], this molecule came in with a 50% cytotoxic concentration (CC50) at 72 h of 1140 ± 30 nM. Moreover, the “Parasitemia levels versus control” value in the series on P. yoelii 17XNL (100 μg/kg i.p. once daily for 7 days) was “did not significantly alter”. Also, in the series on P. yoelii 17XNL (300 μg/kg i.p. once daily for 7 days), the Parasitemia versus control entry was “significantly reduced”. The same molecule came in with a Parasitemia peak with P. yoelii 17XNL (300 μg/kg i.p. once daily for 7 days, peak at 11 dpi, control 40.13% (12 dpi)) of 18.85%. Further, the Mortality entry in the series with P. yoelii 17XNL (100 or 300 μg/kg i.p. once daily for 7 days, up to 30 dpi) was “No mortality”. In addition, in the series on mice, the LD50 is given as 170 to 380 μg/kg per injection. The Prolongation of survival in the series with P. berghei ANKA (300 μg/kg i.p. once daily for 4 days, significant (p < 0.05)) came out at 33.33%; with P. berghei ANKA (300 μg/kg i.p. once daily for 7 days, statistically insignificant (p > 0.05)), 33.33%. Also, the “Patients developing ring scotoma (Sm-related retinopathy)” value in series [3] is reported as “two out of five patients”. Further, the hemolysis at 3 h, 100 µM in series [4] came to 1.04 ± 0.23%. Also, the Parasite morphology result in the series with P. falciparum 3D7 [5] (50 nM for 72 h) is recorded as “induced morphological alterations, including shrinkage”. In addition, the “Parasitemia levels along the incubation period” value with P. falciparum 3D7 [5] (10 or 50 nM, 1–72 h) is listed as “not increased”. Besides, in the series on P. falciparum 3D7 [5] (10 or 50 nM, 1–72 h of incubation, ring-stage synchronized), the “Parasite life cycle stage under exposure” value is given as “blocked in the ring stage”. Also, the “Parasite growth after removal of compound (washed group)” value in the series on P. falciparum 3D7 [5] (72 h exposure to 10 or 50 nM, then further 72 h without compound (up to 144 h)) is “not restored”. Besides, the IC50 turned out to be 25.4 ± 8.15 nM in the series on P. falciparum K1 (K1, 72 h) and 12.1 ± 4.41 nM in the series with P. falciparum 3D7 [1] (3D7, 72 h). In addition, the “Resistance Index” value in the series with P. falciparum K1 (ratio between the IC50 values of P. falciparum K1 and 3D7) was found to be 2.1. For the same molecule, the “SI for P. falciparum K1” value in the series with P. falciparum K1 (selectivity index, ratio between IC50 (K1) and CC50 (HFF)) is given as 44.83. Further, the “SI for P. falciparum 3D7” value in the series on P. falciparum 3D7 [1] (selectivity index, ratio between IC50 (3D7) and CC50 (HFF)) came out at 94.45.
